Reference: patent US8067430B1, “Anti-HIV activity of the opioid antagonist naloxone” (University of South Florida, priority 2003, dated 2011)
Structures can show the parent of a compound that is named as a salt.

Tests used:
[1] = test system: HIV gp41 transmembrane envelope glycoprotein RNA; assay: RT-PCR of gp41 RNA from HIV infected target cells; assay type: cell-based, HIV-MN; settings: different molar concentrations, hydrochloride
Description: Total RNA from the preparations described above was used as a template for the generation of complementary DNA (cDNA). This was accomplished through the use of commercial RT-PCR kits (Gibco/BRL/Life Technologies, Inc., Rockville, Md.). […]

[2] = test system: reverse transcriptase activity in HIV-MN infected Supt 1 cells; assay: RT activity assay on lysates of HIV-MN infected, drug-treated Supt 1 cells; assay type: cell-based
Protocol: 200TCID-50 per milliliter (tissue culture infectious dose) of HIV-MN cell free virus was used to infect 500,000/milliliter of a human T cell line (called SupTI) in the presence (at a range of concentrations) or absence (control) of naloxone-HC1/or AZT. The TCID-50 is an amount of virus which will infect 50% of non-infected target cells. The virus+cells+drugs (naloxone or AZT) were incubated at 37 degrees Celsius in an atmosphere of 5% carbon dioxide for three days. Cells were lysed by using a detergent 1% Triton-X100. This preparation was frozen in liquid nitrogen and thawed at 37 degrees Celsius for three cycles. The preparation was vortexed vigorously for 20 seconds at the end of each cycle. Samples were then stored at −80 degrees Celsius until analysis. Total RNA from the samples were prepared by using the Tri-reagent assay and aliquoted and stored at −80 degrees Celsius until RT-PCR (reverse transcriptase-polymerase chain reaction) analysis.
A 96 well microplate was coated with 200 μl/well of a 40 mg/ml solution of polyA and incubated at room temperature overnight with rocking. […] The color reaction in the wells was measured spectrophotometrically. Color development was proportional to the amount of RT in the wells and quantitation was made based upon a standard curve of using recombinant RT. […]

[3] = test system: HIV-1 gp120 (external envelope glycoprotein); assay: Immunoblot (Western blot) of gp120 in lysates of HIV infected Supt 1 cells; assay type: cell-based, HIV-1MN
Protocol: The expression of the essential HIV coat protein gp120 is measured by this technique. Western Blot analysis of gp120 detected with a murine anti-gp120 monoclonal antibody from HIV-1 infected cells treated with naloxone or AZT. HIV-MN infected Supt 1 cells treated will different molar concentrations of naloxone or AZT. Cells were lysed at 3 days after infection of the cells with cell free HIV-1MN and 100 μg of the lysate was loaded onto SDS-PAGE, transferred onto a Hybond ECL membrane and detected with an anti-gp120 monoclonal antibody. VC=viral control (infected cells with no drug treatment).
200TCID-50 per milliliter (tissue culture infectious dose) of HIV-MN cell free virus was used to infect 500,000/milliliter of a human T cell line (called SupTI) in the presence (at a range of concentrations) or absence (control) of naloxone-HC1/or AZT. The TCID-50 is an amount of virus which will infect 50% of non-infected target cells. The virus+cells+drugs (naloxone or AZT) were incubated at 37 degrees Celsius in an atmosphere of 5% carbon dioxide for three days. Cells were lysed by using a detergent 1% Triton-X100. This preparation was frozen in liquid nitrogen and thawed at 37 degrees Celsius for three cycles. The preparation was vortexed vigorously for 20 seconds at the end of each cycle. Samples were then stored at −80 degrees Celsius until analysis. […]

recombinant RT = biological target: T1, recombinant RT (Human immunodeficiency virus type 1 group M subtype B, UniProt P04585); assay: Effect on recombinant RT; assay type: biochemical; settings: different molar concentrations; protein not within the HIV viral lysate
T1 construct: effect of different molar concentrations of naloxone on recombinant RT

GADPH = assay: RT-PCR control: expression of constitutive enzyme GADPH; assay type: cell-based, human; settings: housekeeping gene control in RT-PCR
Protocol: Total RNA from the preparations described above was used as a template for the generation of complementary DNA (cDNA). This was accomplished through the use of commercial RT-PCR kits (Gibco/BRL/Life Technologies, Inc., Rockville, Md.). The gene for the HIV gp41 transmembrane envelope glycoprotein was amplified from the RT products through the use of the following PCR cycling conditions: 94 degrees Celsius for 2 minutes followed by 52 degrees Celsius for 1 minutes then followed by 32 cycles at 94 degrees Celsius for 1 minutes, 52 degrees Celsius for 1 minutes, 72 degrees Celsius for […], then PCR extension was accomplished at 72 degrees Celsius for 10 minutes. The cycles were then ended by incubation at 4 degrees Celsius for 16 hours. […] (microliters) of PCR products were then loaded onto a 1.5% agarose gel containing 5 μg/ml of ethidium bromide. Bands in the gel with a size of 1.2 kb was considered to be gp41 based upon the primers used in the assay: Primer Sequences are as follows: Sense: 5 prime-[…]-3 prime (SEQ ID NO:1); Antisense 5 prime-[…]-3 prime (SEQ ID NO:2). In order to eliminate the possibility that the drug treatments could have an inhibitory effect on the RT used in the RT-PCR reaction rather than the HIV RT a constitutive (i.e. always expressed) enzyme called GADPH was used as a control. […]

Compound: C=CCN1CC[C@]23c4c5ccc(O)c4O[C@H]2C(=O)CC[C@@]3(O)[C@H]1C5 [naloxone, naloxone hydrochloride]
- expression of RNA for envelope glycoprotein gp41 (RT-PCR) [1]: inhibiting expression of RNA for the envelope glycoprotein gp41
- expression of RNA for envelope glycoprotein gp41 (RT-PCR) ([1]; listed as Naloxone): significantly depress expression
- inhibition of RT activity in HIV infected cells compared with AZT ([2]; identical molar dose range of AZT): at least as effective as AZT
- RT activity in HIV-MN infected Supt 1 cells ([2]; treatment dose increasing from 10^-11 to 10^-4 M, 3 days, vs no drug control): RT activity decreases
- expression of gp120 protein (Western blot) ([3]; HIV infected lymphocytes): significantly depress expression
- inhibition of HIV as measured by gp120 expression, compared with AZT ([3]; equivalent molar concentrations, cells lysed 3 days after infection): as effective, or more effective, than equivalent molar concentrations of AZT
- effect on recombinant RT (recombinant RT): direct inhibitory effect on RT
- effect of drug treatment on expression of GADPH (GADPH): No effect
